Measured values from patent US6479555B1, “Method for inducing hepatic fibrosis by repeated administration of allylalcohol” (priority 2000, dated 2002).

Legend:
[1] = system: Spraque Dawley male white mice; assay: Extent of hepatic fibrosis by histological examination (Batts and Ludwig classification) after repeated allylalcohol injection; format: in vivo, white mouse
Experimental: (§1) Of the forty total Spraque Dawley male white mice(weight 150-200 g), 10 mice were used as a control group and 30 mice were treated with allylalcohol.
(§2) 30 mice with treated allylalcohol were devided into three groups, each containing 10 mice. The 1st group was administered an injection with allylalcohol dissolved in saline solution with 0.3 mmole/kg into a peritoneal cavity twice a week. The 2nd and 3rd groups received 0.62 mmole/kg and 0.93 mmole/kg of allylalcohol, respectively, via the same method.
(§3) The animals were maintained 23° C. and 40% of relative humidity. The intensity of illumination was maintained for 12 hours from 6 A.M. to 6 P.M. They were sacrificed after 8 weeks.
(§4) The present inventors used total of 30 Spraque-Dawley male white mice, injected 0.62 mmole/kg allylalcohol into the peritoneal cavity twice a week, and sacrificed ten mice each time after 4 weeks, 8 weeks, and 16 weeks.
(§5) The liver tissues of 30 mice obtained from the Example <1-2> were fixed in 10% formalin solution, stained with Masson's trichrome, and observed for the determination of fibrosis under light microscope.

[2] = system: Spraque-Dawley male white mice; assay: Quantification of hepatic fibrosis by the numerical scoring system; format: in vivo, white mouse
Excerpt: In order to include width of fibrosis septa and fibrosis development in sinusoid as well as that between the portals, these inventors had quantified the extent of the fibrosis using the numerical scoring system reported by Castilla-Cortaza(1997) and Oberti (1997).
To systemically analyze the result of the numerical scoring system, these inventors also used the Image precessing and analysis system program (Leica Q500 MC, Leica Cambridge Ltd, Cambridge, U. K., 1994).
The length of septa was classified as score “4” when the septa showing fibrosis from one portal to the other is one whole length, score “3” for up to ⅔, score “2” for up to ⅓, and score “1” for less than ⅓. For the width of septa, the score from 2-6 was given for the mean of widths of three different periportal septa, centriperiveinal septa and perinodal septa at four different sites.
The number for the width of septa was determined by measuring the fibrotic region of blood vessel in one node that score “4” when the whole node was filled with the fibrotic strand and a large number of the septa made the micronode, score “3” when the fibrosis region occupied up to ⅔ of the whole node area, score “2” up to ⅓, and score “1” when the fibrosis strand was little in the node.
as §4, §5

[3] = system: Spraque Dawley male white mice; assay: Death during repeated allylalcohol treatment; format: in vivo, white mouse
Experimental: as §1, §2, §3, §4

[4] = system: Spraque-Dawley male white mice; assay: Serum alanine aminotransferase (ALT) activity; format: in vivo, white mouse; details: 0.62 mmole/kg i.p. twice a week
Experimental: as §4
To collect a specimen, the white mouse was sacrificed 72 hours after final injection. The mouse was put under general anesthesia using diethylether, and its abdomen was cut open at suspine position. 7-10 ml of whole blood was withdrawn with a syringe treated with heparine, and the liver tissue was extracted.
The collected blood sample was left at room temperature for 30 min, centrifuged at 3,000 g for 10 min. The serum was devided into several fractions and stored at −70° C. until used.
Serum alanine aminotransferase(hereinafter, as referred as “ALT”) activity was measured by using the automatic analyzer (Hitach, 747/200 type), which is based on the spectrophotometric quantification of […] loss using lactic dehydrogenase as a […] (Horder and Rej, 1983).

[5] = system: Spraque-Dawley male white mice; assay: Collagen content of liver tissues (dye-binding procedure of Jimenez); format: in vivo, white mouse; details: liver tissue
Experimental: The collagen content of liver tissues was measured by dye-binding procedure of Jimenez. The liver tissue fixed in 10% formalin and embedded in paraffin was sliced by 15 um of thickness and put on a slide glass.
After the paraffin was removed by xylene and alcohol, the sample was stained with the saturated picric acid solution containing 0.01% fast green FCF (Fluka AG, NO 42053, Switzerland), left at room temperature for 15 min, and washed with a phosphate buffer until most color came off. The sample was restained with the saturated picric acid solution containing 0.04% fast green and 0.1% Sirius red F3B (Gurr BDH Chemical Ltd., NO 34149, Poole, England), left at room temperature for 30 min in the darkroom, and washed as before.
The stained tissue sample was transferred into the tube containing 1 ml solution with equal volume of 0.1% sodium hydroxide and methanol, and the tube was slowly shaken until the color dissolved completely. The absorbance of the colored solution was measured with a spectrophotometer. The wavelength for maximum absorbance was 630 nm for fast green, and 540 nm for Sirius red. Since fast green also absorbed a little (7.78%) at 540 nm, these inventors made calculations correcting for the factor.
The amount of collagen per unit protein was obtained with the formula 1 using the color equivalence of 3 OD/mg protein and 37 OD/mg collagen for fast green and Sirius red, respectively. [formula]

TGF β1 mRNA = assay: Semi-quantitative measurement of TGF β1 mRNA expression in the liver tissue by RT-PCR; format: in vivo, white mouse
Experimental: Total RNA of the mouse liver tissue stored at −70° C. was extracted by one-step method using acid guanidinium thiocyanate-phenol-chloroform (AGPC, 1987) of Chomczynski and Sacchi. […] of the frozen liver tissue was homogenized in 1 ml of denaturing solution (4 M guanidinium thiocyanate, 25 mM sodium citrate, pH 7, 0.5% sarcosyl, 0.1 M 2-mercapto ethanol).
After the addition of 1 ml of phenol and 100 ul of chloroform were added to it, the homogenate was shaken thoroughly for 15 sec, left at 4° C. for 5 min, and centrifuged at 12,000 g and 4° C. for 15 min. The supernatant (aqueous phase) was withdrawn, mixed with equal volume of isopropanol, left at 4° C. for 15 min, and centrifuged as before.
RNA pellet was collected, washed with 75% ethanol twice, and centrifuged at 7,500 g and 4° C. for 8 min to remove ethanol. RNA pellet was dried under vacuum using the Speed Vac concentrator at −70° C. for 15 min. The dried RNA was dissolved in 20 ul of deionized distilled water(DDW) treated with 0.1% di-ethyl-pyro-carbonate (DEPC), and stored at −70° C. RNA concentration was determined by spectrophotometric measurement of absorbance at 260 nm. When the absorption ratio of A260/A280 used as an index of purity, exceeds 1.8, RNA samples were considered pure.
For the synthesis of cDNA of TGF β1 mRNA, 2 ul of total RNA extracted from the mouse liver tissue was mixed with 10 unit of Molony murine leukemia virus reverse transcriptase(M-MuLV RT), 100 ng of oligo-dT15, 1 ul of dNTP (dGTP, dATP, dTTP, dCTP), RNase inhibitor 20 unit, 0.5 ul of 100 mM dithitritol (DTT) and 4 ul of 5×buffer solution, and total volume of the reaction mixture was adjusted to 20 ul by adding 0.1% DEPC-treated DDW.
The reaction mixture was heated at 37° C. for 90 min and 95° C. for 5 min, and rapidly cooled down on ice. 80 ul of DDW was added to this cDNA mixture which was then used as a PCR template.
For amplification of TGF β1 cDNA template, a sense-primer represented by SEQ ID NO.1 and an antisense-primer represented by SEQ ID NO.2 was synthesized. The position and the PCR product size of the primer set were described in Table 7. The concentration of the synthesized primer was adjusted to 10 pmole/ul by dissolving in TE buffer solution and stored at −20° C. until used.
cDNA solution was diluted by two times until the concentration was to be 2^−1, 2^−2, 2^−3, , , , , and 2^−10, and used as PCR templates. 50 ul total of PCR reaction solution contained 4 ul of cDNA template solution, 1 unit of Taq DNA polymerase, each of 1 ul the antisense and the sense primer, 1 ul of dNTP, 5 ul of 10×buffer solution (containing 2.5 mM MgCl2) and 37.7 ul of DDW.
To prevent vaporization of the sample at high temperature, 20 ul of mineral oil was added to the reaction mixture. PCR reaction was performed with PCR automated thermal cycler (Perkin Elmer) by using a hot start method. The hot start method included a denaturation step at 94° C. for 4 min, and the primer annealing and extension step at 65° C. for 15 min (at this step, Taq DNA polymerase was added after 10 min).
The reaction system then underwent 35 cycles of heating 94° C. for 45 sec, 60° C. for 45 sec, and 72° C. for 2 min, and the extension step was completed with 5 min heating at 72° C. In the RNA synthesis, negative control was distilled water, and positive control was 1 ul of TGF β1 cDNA fragment solution provided from a Clontech Laboratory.
The amplified PCR product mixed with 6×DNA loading buffer (0.25% bromophenol blue, 0.25% xylene cylanol, 30% glycol) was analyzed by electrophoresis using 2% agarose gel containing 1 ul ethidium bromide with 1×TBE buffer solution(89 mM tris-borate, 2 mM EDTA). After the electrophoresis at 100 volt for 60 min, UV transilluminator was used to establish the visible band(FIG. 3).

periportal liver = details: in vivo; cited from earlier work
mouse = mouse treated with carbon tetrachloride, cited from earlier work
[6] = 0.62 mmole/kg i.p. twice a week, 16 weeks
[7] = 2nd group, 0.62 mmole/kg i.p. twice a week, 8 weeks
[8] = liver tissues of the 30 mice of Example 1-2, Masson's trichrome
[9] = 0.62 mmole/kg i.p. twice a week, 4 weeks
[10] = 0.62 mmole/kg i.p. twice a week, 8 weeks

Compound: C=CCO [allylalcohol, Allylalcohol]
- number of mice with cirrhosis [1, 6]: 5
- number of mice with moderate hepatic fibrosis [1, 6]: 2
- number of mice with severe hepatic fibrosis [1, 6]: 3
- number of mice with mild hepatic fibrosis [1, 7]: 1
- number of mice with severe hepatic fibrosis [1, 7]: 5
- number of mice with severe hepatic fibrosis ([1]; 3rd group, 0.93 mmole/kg i.p. twice a week, 8 weeks): 2
- number of samples classified as cirrhosis [1, 8]: 5
- number of samples classified as mild [1, 8]: 7
- number of samples classified as moderate [1, 8]: 5
- number of samples classified as normal [1, 8]: 4
- number of samples classified as severe [1, 8]: 8
- number of mice with numerical score 1 [2, 9]: 10
- number of mice with numerical score 8 [2, 10]: 4
- number of mice with numerical score 9 [2, 10]: 1
- number of mice with numerical score 10 [2, 10]: 1
- number of mice with numerical score 11 [2, 10]: 2
- number of mice with numerical score 12 [2, 10]: 1
- number of mice with numerical score 7 [2, 6]: 1
- number of mice with numerical score 8 [2, 6]: 1
- number of mice with numerical score 10 [2, 6]: 1
- number of mice with numerical score 11 [2, 6]: 1
- number of mice with numerical score 12 [2, 6]: 3
- number of mice with numerical score 13 [2, 6]: 2
- number of mice with numerical score 14 [2, 6]: 1
- extent of hepatic fibrosis by the numerical scoring system, all the animals ([2]; 4-week group, 0.62 mmole/kg i.p. twice a week): less than 2
- extent of hepatic fibrosis by the numerical scoring system, all the animals ([2]; 8-week group, 0.62 mmole/kg i.p. twice a week): higher than 7
- extent of hepatic fibrosis by the numerical scoring system, all the animals ([2]; 16-week group, 0.62 mmole/kg i.p. twice a week): higher than 7
- numerical score ([2]; cirrhosis group of the 30 treated mice): 12.4±1.5
- numerical score ([2]; mild group of the 30 treated mice): 2.6±1
- numerical score ([2]; moderate group of the 30 treated mice): 9.0±1.7
- numerical score ([2]; printed 'control group' (first histological class) of the 30 treated mice): 1.0±0
- numerical score ([2]; severe group of the 30 treated mice): 9.8±1.5
- number of tissue samples with score of 1-6 ([2]; treated mice of Example 1-2): 10
- number of tissue samples with score of 7-10 ([2]; treated mice of Example 1-2): 9
- number of tissue samples with score of 11-14 ([2]; treated mice of Example 1-2): 10
- death (number of mice) [3, 9]: 0
- death (number of mice) ([3]; 0.62 mmole/kg i.p. twice a week, 8 weeks (Example 1-2)): 1
- death (number of mice) [3, 6]: 0
- death (number of mice) ([3]; 1st group, 0.3 mmole/kg i.p. twice a week, 8 weeks): 0
- ALT activity ([4]; 4 weeks): 69.6±39.8 U/L
- ALT activity ([4]; 8 weeks): 63.8±9.6 U/L
- ALT activity ([4]; 16 weeks): 75.5±15.9 U/L
- Collagen content ([5]; treated for 4 weeks): 110.2±11.9 ug collagen/mg protein
- Collagen content ([5]; treated for 8 weeks): 132.5±29.3 ug collagen/mg protein
- Collagen content ([5]; treated for 16 weeks): 157.2±94.7 ug collagen/mg protein
- Collagen content ([5]; treated mice with score 1-6): 110.2±11.9 ug collagen/mg protein
- Collagen content ([5]; treated mice with score 7-10): 131.4±30.0 ug collagen/mg protein
- Collagen content ([5]; treated mice with score 11-14): 158.2±94.2 ug collagen/mg protein
- TGF β1 mRNA (TGF β1 mRNA; treated for 4 weeks, Table 9 line printed 'Score 1-6'): 4.7±2.4 unit/total RNA 2 ug
- TGF β1 mRNA (TGF β1 mRNA; treated for 8 weeks, Table 9 line printed 'Score 7-10'): 5.8±1.0 unit/total RNA 2 ug
- TGF β1 mRNA (TGF β1 mRNA; treated for 16 weeks, Table 9 line printed 'Score 11-14'): 5.7±2.3 unit/total RNA 2 ug
- TGF β1 mRNA (TGF β1 mRNA; treated mice with score 1-6): 4.7±2.4 unit/total RNA 2 ug
- TGF β1 mRNA (TGF β1 mRNA; treated mice with score 7-10): 5.8±1.5 unit/total RNA 2 ug
- TGF β1 mRNA (TGF β1 mRNA; treated mice with score 11-14): 5.7±2.0 unit/total RNA 2 ug

Compound: C=CC=O [Acrolein, acrolein]
- liver toxicity (periportal liver): intense liver toxicity

Compound: ClC(Cl)(Cl)Cl [carbon tetrachloride]
- induction period (mouse; pretreatment with phenobarbitol): 8-10 weeks
- time to irreversible accumulation of collagen (mouse): ≤ 20 weeks
